Tests used:
[1] = tested on: anesthesia by lignocaine admixed with epinephrine; details: 0.5-1.5 mg, Example 1, Table 1 of the '714 patent; cited from earlier work
[2] = Narrow-range pH-stability profiling at 60° C.; format: physicochemical
Experimental: (§1) The drug is monitored at a detection wavelength of 232 nm.
All samples were stored in the dark.
The phosphate buffers were prepared as previously described. […] Measurement of sample pH was done after HPLC analysis.
In order to precisely define the most favorable pH, a stronger stressing condition was needed to generate a greater extent of degradation in the lower pH region. For this study, the incubation condition was shifted from 40° C. to 60° C. […] Since the extent of degradation after fourteen (14) days was still less than twenty percent (20%) in most samples, zero-order rate kinetics was used for the degradation curves (concentration versus time). The calculated rate constant was plotted against pH to provide the narrow-range pH-stability profile.

[3] = Effect of buffer anion on stability, pH 3, 60° C.; format: physicochemical
Experimental: as §1
Tightly sealed glass vials containing the test solutions were placed in an oven at 40° C. or 60° C. All samples were stored in the dark. Aliquots were removed at designated time points for HPLC analysis and pH measurement.
The test buffers included 50 mM sodium phosphate, 50 mM sodium acetate, 50 mM sodium lactate, 50 mM sodium citrate, and 50 mM sodium succinate buffers at pH 3.
The phosphate and acetate buffers were prepared as described above. The citrate buffer was prepared by adding 9.60 g of citric acid to water, adjusting the pH with 2 N NaOH to pH 3, and bringing the volume to 1 L in a volumetric flask. The lactate buffer was prepared by adding 2.25 g of lactic acid to water, adjusting the pH with 2 N NaOH to pH 3, and bringing the volume to 1L in a volumetric flask. The succinate buffer was prepared by adding 2.95 g succinic acid to water, adjusting the pH with 2 N NaOH to pH 3, and bringing the volume to 1 L in a volumetric flask.
Measurements of sample pH were done after HPLC analysis.

[4] = Sodium Phosphate Buffer pH 2.0, 60° C., Day 0
[5] = Sodium Phosphate Buffer pH 2.0, 60° C., Day 2
[6] = Sodium Phosphate Buffer pH 2.0, 60° C., Day 7
[7] = Sodium Phosphate Buffer pH 2.0, 60° C., Day 14
[8] = Sodium Phosphate Buffer pH 2.5, 60° C., Day 0
[9] = Sodium Phosphate Buffer pH 2.5, 60° C., Day 2
[10] = Sodium Phosphate Buffer pH 2.5, 60° C., Day 7
[11] = Sodium Phosphate Buffer pH 2.5, 60° C., Day 14
[12] = Sodium Phosphate Buffer pH 3.0, 60° C., Day 0
[13] = Sodium Phosphate Buffer pH 3.0, 60° C., Day 2
[14] = Sodium Phosphate Buffer pH 3.0, 60° C., Day 7
[15] = Sodium Phosphate Buffer pH 3.0, 60° C., Day 14
[16] = Sodium Phosphate Buffer pH 3.4, 60° C., Day 0
[17] = Sodium Phosphate Buffer pH 3.4, 60° C., Day 2
[18] = Sodium Phosphate Buffer pH 3.4, 60° C., Day 7
[19] = Sodium Phosphate Buffer pH 3.4, 60° C., Day 14
[20] = Sodium Phosphate Buffer pH 4.0, 60° C., Day 0
[21] = Sodium Phosphate Buffer pH 4.0, 60° C., Day 2
[22] = Sodium Phosphate Buffer pH 4.0, 60° C., Day 7
[23] = Sodium Phosphate Buffer pH 4.0, 60° C., Day 14
[24] = 50 mM Acetate (sodium salt) pH 3.0, 60° C., Day 0
[25] = 50 mM Acetate (sodium salt) pH 3.0, 60° C., Day 2
[26] = 50 mM Acetate (sodium salt) pH 3.0, 60° C., Day 7
[27] = 50 mM Acetate (sodium salt) pH 3.0, 60° C., Day 14
[28] = 50 mM Phosphate (sodium salt) pH 3.0, 60° C., Day 0
[29] = 50 mM Phosphate (sodium salt) pH 3.0, 60° C., Day 2
[30] = 50 mM Phosphate (sodium salt) pH 3.0, 60° C., Day 7
[31] = 50 mM Phosphate (sodium salt) pH 3.0, 60° C., Day 14

pH at which most stable ([2]; 50 mM sodium phosphate, 60° C., FIG. 2): 3.5 | Phentolamine Concentration [2, 4]: 98 µg/mL | Phentolamine Purity [2, 4]: 100 % peak area | Phentolamine Concentration [2, 5]: 98 µg/mL | Phentolamine Purity [2, 5]: 99 % peak area | Phentolamine Concentration [2, 6]: 93 µg/mL | Phentolamine Purity [2, 6]: 96 % peak area | Phentolamine Concentration [2, 7]: 81 µg/mL | Phentolamine Purity [2, 7]: 92 % peak area | Phentolamine Concentration [2, 8]: 99 µg/mL | Phentolamine Purity [2, 8]: 99 % peak area | Phentolamine Concentration [2, 9]: 96 µg/mL | Phentolamine Purity [2, 9]: 97 % peak area | Phentolamine Concentration [2, 10]: 78 µg/mL | Phentolamine Purity [2, 10]: 92 % peak area | Phentolamine Concentration [2, 11]: 79 µg/mL | Phentolamine Purity [2, 11]: 86 % peak area | Phentolamine Concentration [2, 12]: 96 µg/mL | Phentolamine Purity [2, 12]: 99 % peak area | Phentolamine Concentration [2, 13]: 93 µg/mL | Phentolamine Purity [2, 13]: 97 % peak area | Phentolamine Concentration [2, 14]: 91 µg/mL | Phentolamine Purity [2, 14]: 95 % peak area | Phentolamine Concentration [2, 15]: 84 µg/mL | Phentolamine Purity [2, 15]: 91 % peak area | Phentolamine Concentration [2, 16]: 97 µg/mL | Phentolamine Purity [2, 16]: 99 % peak area | Phentolamine Concentration [2, 17]: 95 µg/mL | Phentolamine Purity [2, 17]: 98 % peak area | Phentolamine Concentration [2, 18]: 96 µg/mL | Phentolamine Purity [2, 18]: 97 % peak area | Phentolamine Concentration [2, 19]: 91 µg/mL | Phentolamine Purity [2, 19]: 94 % peak area | Phentolamine Concentration [2, 20]: 97 µg/mL | Phentolamine Purity [2, 20]: 99 % peak area | Phentolamine Concentration [2, 21]: 95 µg/mL | Phentolamine Purity [2, 21]: 98 % peak area | Phentolamine Concentration [2, 22]: 94 µg/mL | Phentolamine Purity [2, 22]: 97 % peak area | Phentolamine Concentration [2, 23]: 89 µg/mL | Phentolamine Purity [2, 23]: 96 % peak area | Phentolamine Concentration [3, 24]: 96 µg/mL | Phentolamine Purity [3, 24]: 100 % peak area | Phentolamine Concentration [3, 25]: 95 µg/mL | Phentolamine Purity [3, 25]: 98 % peak area | Phentolamine Concentration [3, 26]: 94 µg/mL | Phentolamine Purity [3, 26]: 97 % peak area | Phentolamine Concentration [3, 27]: 89 µg/mL | Phentolamine Purity [3, 27]: 96 % peak area | Phentolamine Concentration ([3]; 50 mM Citrate (sodium salt) pH 3.0, 60° C., Day 0): 93 µg/mL | Phentolamine Concentration ([3]; 50 mM Citrate (sodium salt) pH 3.0, 60° C., Day 2): 87 µg/mL | Phentolamine Concentration ([3]; 50 mM Citrate (sodium salt) pH 3.0, 60° C., Day 7): 73 µg/mL | Phentolamine Concentration ([3]; 50 mM Citrate (sodium salt) pH 3.0, 60° C., Day 14): 62 µg/mL | Phentolamine Concentration ([3]; 50 mM Lactate (sodium salt) pH 3.0, 60° C., Day 0): 97 µg/mL | Phentolamine Concentration ([3]; 50 mM Lactate (sodium salt) pH 3.0, 60° C., Day 2): 94 µg/mL | Phentolamine Concentration ([3]; 50 mM Lactate (sodium salt) pH 3.0, 60° C., Day 7): 91 µg/mL | Phentolamine Concentration ([3]; 50 mM Lactate (sodium salt) pH 3.0, 60° C., Day 14): 83 µg/mL | Phentolamine Concentration [3, 28]: 96 µg/mL | Phentolamine Purity [3, 28]: 99 % peak area | Phentolamine Concentration [3, 29]: 93 µg/mL | Phentolamine Purity [3, 29]: 97 % peak area | Phentolamine Concentration [3, 30]: 91 µg/mL | Phentolamine Purity [3, 30]: 95 % peak area | Phentolamine Concentration [3, 31]: 84 µg/mL | Phentolamine Purity [3, 31]: 91 % peak area | Phentolamine Concentration ([3]; 50 mM Succinate (sodium salt) pH 3.0, 60° C., Day 0): 96 µg/mL | Phentolamine Concentration ([3]; 50 mM Succinate (sodium salt) pH 3.0, 60° C., Day 2): 88 µg/mL | Phentolamine Concentration ([3]; 50 mM Succinate (sodium salt) pH 3.0, 60° C., Day 7): 74 µg/mL | Phentolamine Concentration ([3]; 50 mM Succinate (sodium salt) pH 3.0, 60° C., Day 14): 64 µg/mL
SMILES: Cc1ccc(N(CC2=NCCN2)c2cccc(O)c2)cc1 [Phentolamine, phentolamine]
duration of anesthesia [1]: reduction in the duration of anesthesia with increasing amounts | rank of buffer preference based on amount of phentolamine recovered at the end of the study ([3]; pH 3, 60° C., 14 days): sodium acetate>no buffer (water with pH adjusted to pH 3)>sodium phosphate>sodium lactate>sodium succinate>sodium citrate
